According to the NIST ThermoML archive (doi:10.1016/j.jct.2013.12.025):
± gives the expanded uncertainty stated by the source.

Assays:
[1] = 101 kPa, Liquid, Vibrating tube method
[2] = refractive index (Na D-line) (dimensionless); details: 101.33 kPa, Liquid, Standard Abbe refractometry
[3] = refractive index (Na D-line) (dimensionless); xn = mol fraction of the nth substance listed; details: 101 kPa, Liquid, Standard Abbe refractometry, x2 = 0
[4] = xn = mol fraction of the nth substance listed; details: 101 kPa, Liquid, Vibrating tube method, x2 = 0

refractive index ([3]; 283.15 K) | refractive index ([3]; 288.15 K) | refractive index ([3]; 293.15 K) | refractive index ([3]; 298.15 K) | refractive index ([3]; 303.15 K) | mass density ([4]; 283.15 K) | mass density ([4]; 288.15 K) | mass density ([4]; 293.15 K) | mass density ([4]; 298.15 K) | mass density ([4]; 303.15 K) | SMILES | mass density ([1]; 283.15 K) | mass density ([1]; 288.15 K) | mass density ([1]; 293.15 K) | mass density ([1]; 298.15 K) | mass density ([1]; 303.15 K) | refractive index ([2]; 283.15 K) | refractive index ([2]; 288.15 K) | refractive index ([2]; 293.15 K) | refractive index ([2]; 298.15 K) | refractive index ([2]; 303.15 K)
1.52242 ± 0.00031 | 1.51985 ± 0.00031 | 1.51724 ± 0.00031 | 1.5146 ± 0.00032 | 1.51191 ± 0.00032 | 1003.3 ± 1 kg/m3 | 998.62 ± 1 kg/m3 | 994.01 ± 1 kg/m3 | 989.32 ± 1 kg/m3 | 984.59 ± 1 kg/m3 | COc1ccccc1 [anisole] + C=C[Si](C)(C)O[Si](C)(C)C=C |  |  |  |  |  |  |  |  |  | 
1.50118 ± 0.00032 | 1.49845 ± 0.00032 | 1.49575 ± 0.00032 | 1.49301 ± 0.00032 | 1.4903 ± 0.00032 | 875.69 ± 1 kg/m3 | 871.3 ± 1 kg/m3 | 866.9 ± 1 kg/m3 | 862.58 ± 1 kg/m3 | 858.16 ± 1 kg/m3 | CCc1ccccc1 [ethylbenzene] + C=C[Si](C)(C)O[Si](C)(C)C=C |  |  |  |  |  |  |  |  |  | 

Continued, compound first:

SMILES | refractive index ([3]; 283.15 K) | refractive index ([3]; 288.15 K) | refractive index ([3]; 293.15 K) | refractive index ([3]; 298.15 K) | refractive index ([3]; 303.15 K) | mass density ([4]; 283.15 K) | mass density ([4]; 288.15 K) | mass density ([4]; 293.15 K) | mass density ([4]; 298.15 K) | mass density ([4]; 303.15 K) | mass density ([1]; 283.15 K) | mass density ([1]; 288.15 K) | mass density ([1]; 293.15 K) | mass density ([1]; 298.15 K) | mass density ([1]; 303.15 K) | refractive index ([2]; 283.15 K) | refractive index ([2]; 288.15 K) | refractive index ([2]; 293.15 K) | refractive index ([2]; 298.15 K) | refractive index ([2]; 303.15 K)
C=C[Si](C)(C)O[Si](C)(C)C=C [1,3-diethenyl-1,1,3,3-tetramethyldisiloxane] |  |  |  |  |  |  |  |  |  |  | 822.67 ± 1 kg/m3 | 817.77 ± 1 kg/m3 | 812.92 ± 1 kg/m3 | 808 ± 1 kg/m3 | 803.07 ± 1 kg/m3 | 1.41766 ± 0.00032 | 1.415 ± 0.00032 | 1.41236 ± 0.00032 | 1.4097 ± 0.00032 | 1.40707 ± 0.00032
COc1ccccc1 [anisole] |  |  |  |  |  |  |  |  |  |  | 1003.3 ± 1 kg/m3 | 998.62 ± 1 kg/m3 | 994.01 ± 1 kg/m3 | 989.32 ± 1 kg/m3 | 984.59 ± 1 kg/m3 | 1.52242 ± 0.00031 | 1.51985 ± 0.00031 | 1.51724 ± 0.00031 | 1.5146 ± 0.00032 | 1.51191 ± 0.00032
Clc1ccccc1 [chlorobenzene] |  |  |  |  |  |  |  |  |  |  | 1117.29 ± 1 kg/m3 | 1111.89 ± 1 kg/m3 | 1106.55 ± 1 kg/m3 | 1101.16 ± 1 kg/m3 | 1095.79 ± 1 kg/m3 | 1.52992 ± 0.00032 | 1.52722 ± 0.00032 | 1.52446 ± 0.00032 | 1.52168 ± 0.00032 | 1.51893 ± 0.00032
Clc1ccccc1 [chlorobenzene] + C=C[Si](C)(C)O[Si](C)(C)C=C | 1.52992 ± 0.00032 | 1.52722 ± 0.00032 | 1.52446 ± 0.00032 | 1.52168 ± 0.00032 | 1.51893 ± 0.00032 | 1117.29 ± 1 kg/m3 | 1111.89 ± 1 kg/m3 | 1106.55 ± 1 kg/m3 | 1101.16 ± 1 kg/m3 | 1095.79 ± 1 kg/m3 |  |  |  |  |  |  |  |  |  | 
CCc1ccccc1 [ethylbenzene] |  |  |  |  |  |  |  |  |  |  | 875.69 ± 1 kg/m3 | 871.3 ± 1 kg/m3 | 866.9 ± 1 kg/m3 | 862.58 ± 1 kg/m3 | 858.16 ± 1 kg/m3 | 1.50118 ± 0.00032 | 1.49845 ± 0.00032 | 1.49575 ± 0.00032 | 1.49301 ± 0.00032 | 1.4903 ± 0.00032
Fc1ccccc1 [fluorobenzene] |  |  |  |  |  |  |  |  |  |  | 1036.89 ± 1 kg/m3 | 1030.93 ± 1 kg/m3 | 1024.96 ± 1 kg/m3 | 1019.07 ± 1 kg/m3 | 1013.03 ± 1 kg/m3 | 1.47152 ± 0.00032 | 1.46859 ± 0.00032 | 1.46571 ± 0.00032 | 1.46283 ± 0.00032 | 1.45989 ± 0.00032
Fc1ccccc1 [fluorobenzene] + C=C[Si](C)(C)O[Si](C)(C)C=C | 1.47152 ± 0.00032 | 1.46859 ± 0.00032 | 1.46571 ± 0.00032 | 1.46283 ± 0.00032 | 1.45989 ± 0.00032 | 1036.89 ± 1 kg/m3 | 1030.93 ± 1 kg/m3 | 1024.96 ± 1 kg/m3 | 1019.07 ± 1 kg/m3 | 1013.03 ± 1 kg/m3 |  |  |  |  |  |  |  |  |  | 
O=[N+]([O-])c1ccccc1 [nitrobenzene] |  |  |  |  |  |  |  |  |  |  | 1212.99 ± 1 kg/m3 | 1208.01 ± 1 kg/m3 | 1203.05 ± 1 kg/m3 | 1198.2 ± 1 kg/m3 | 1193.25 ± 1 kg/m3 | 1.55729 ± 0.00031 | 1.55485 ± 0.00031 | 1.55234 ± 0.00031 | 1.54992 ± 0.00031 | 1.54746 ± 0.00031
O=[N+]([O-])c1ccccc1 [nitrobenzene] + C=C[Si](C)(C)O[Si](C)(C)C=C | 1.55729 ± 0.00031 | 1.55485 ± 0.00031 | 1.55234 ± 0.00031 | 1.54992 ± 0.00031 | 1.54746 ± 0.00031 | 1212.99 ± 1 kg/m3 | 1208.01 ± 1 kg/m3 | 1203.05 ± 1 kg/m3 | 1198.2 ± 1 kg/m3 | 1193.25 ± 1 kg/m3 |  |  |  |  |  |  |  |  |  | 
